This is an account of results in ChEMBL document CHEMBL1150923, “A new cacospongionolide inhibitor of human secretory phospholipase A2 from the Tyrrhenian sponge Fasciospongia cavernosa and absolute configuration of cacospongionolides” (J Nat Prod, 1998).

Structures are written as SMILES. Converted amounts (≈) assume the structure as drawn.

The nature of data set [1]: Inhibition of pig pancreatic group1 sPLA2 at 10 uM by liquid scintillation counting. Details: species or system Sus scrofa; call rule not given here.
A short description of data set [2]: Inhibition of pig pancreatic group1 sPLA2 by liquid scintillation counting. More on the design: species or system Sus scrofa.
In data set [3] the target is T1, Phospholipase A2, membrane associated (Homo sapiens, UniProt P14555).
T1 sequence (P14555 whole entry): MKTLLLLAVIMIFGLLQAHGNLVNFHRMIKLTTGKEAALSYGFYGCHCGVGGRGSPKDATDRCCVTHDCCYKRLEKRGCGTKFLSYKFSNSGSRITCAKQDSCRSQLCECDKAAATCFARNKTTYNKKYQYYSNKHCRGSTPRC
The data set can be described thus: Inhibition of human synovial group2 sPLA2 by liquid scintillation counting.

The nature of data set [4]: Cytotoxicity against human neutrophils by MTT assay. The conditions noted are these: neutrophil. It counts as cell-based.
Data set [5] has as its target T2, Phospholipase A2, membrane associated (Rattus norvegicus, UniProt P14423).
T2 sequence (P14423 whole entry): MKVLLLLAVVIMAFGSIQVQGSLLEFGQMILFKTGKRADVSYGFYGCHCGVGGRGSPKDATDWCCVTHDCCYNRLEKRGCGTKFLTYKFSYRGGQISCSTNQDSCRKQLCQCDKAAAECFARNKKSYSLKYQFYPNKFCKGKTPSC
The data set can be described thus: Inhibition of rat air pouch group2 sPLA2 by liquid scintillation counting.

Another data set has as its target T3, Phospholipase A2 (Apis mellifera, UniProt P00630).
T3 sequence (P00630 whole entry): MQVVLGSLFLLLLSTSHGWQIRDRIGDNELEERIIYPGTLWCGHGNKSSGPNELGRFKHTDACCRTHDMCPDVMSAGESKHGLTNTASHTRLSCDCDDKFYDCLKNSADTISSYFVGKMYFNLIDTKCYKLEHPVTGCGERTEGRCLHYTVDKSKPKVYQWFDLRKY
The data set is described as follows: Inhibition of bee venom group3 sPLA2 by liquid scintillation counting.

The nature of data set [6]: Toxicity in Artemia salina. Type of data set: organism-based. The settings on record: in vivo.
Data set [7] can be described thus: Toxicity in Gambusia affinis. Type of data set: organism-based. The conditions noted are these: in vivo.

On to `C=C1CCC[C@H]2[C@](C)(CCC3=CCC(C4=CC(=O)OC4O)OC3)[C@H](C)CC[C@]12C` (stereo partly drawn) [CACOSPONGIONOLIDE B], for which the IC50 stood at 64.2 µM in data set [1], 4 µM in data set [2] and 4.3 µM in data set [3]. The Activity result in data set [4] is listed as “Not Active”.

On to `CC1=CCC[C@@H]2[C@@](C)(CCC3=CC[C@H](C4=CC(=O)O[C@H]4O)OC3)[C@@H](C)CC[C@@]12C` [CACOSPONGIONOLIDE E], for which the concentration for half-maximal inhibition (IC50) in data set [1] worked out at 5.3 µM; in data set [3], 1.4 µM; in data set [5], 7.8 µM; against Phospholipase A2 it was 2.8 µM. Moreover, in data set [4], the Activity result is listed as “Not Active”. Also, the LC50 in data set [6] is 1.29 µg/mL (≈ 3.22 µM); in data set [7] it was 1.01 µg/mL (≈ 2.52 µM).

Take `C[C@H]1CC[C@@]23C[C@]2(C)CCC[C@@H]3[C@@]1(C)CCC1=CC[C@H](C2=CC(=O)O[C@H]2O)OC1` [CACOSPONGIONOLIDE]: the half-maximal inhibitory concentration (IC50) in data set [1] came to 14.4 µM; in data set [3], 3 µM; on Phospholipase A2, 2.3 µM. Further, the Activity entry in data set [4] is listed as “Not Active”.

With `CC1=C(CC/C(C)=C/CCC2=CC[C@H](C3=CC(=O)O[C@H]3O)O[C@H]2O)C(C)(C)CCC1` [MANOALIDE], the IC50 was 32.3 µM in data set [1] and 3.9 µM in data set [3]. Moreover, the Activity result in data set [4] is given as “Not Active”.
